In brackets after ≈: the same amount, converted by molar mass.
Assays:
Format in all cases: cell-based
[1] = tested on: MYCOBACTERIUM SMEGMATIS ATCC 114; experiment: In vitro antibacterial activity, MIC, BHI agar dilution; details: M. smegmatis ATCC 114, unit assumed
[2] = tested on: PSEUDOMONAS AERUGINOSA DPHD-2862; experiment: as above; details: P. aeruginosa DPHD-2862, unit assumed
[3] = tested on: PSEUDOMONAS AERUGINOSA K799/WT; experiment: as above; details: P. aeruginosa K799/WT, unit assumed
[4] = tested on: STREPTOCOCCUS BOVIS A-5169; experiment: as above; details: S. bovis A-5169, unit assumed
[5] = tested on: ESCHERICHIA COLI DC-2; experiment: as above; details: E. coli DC-2, unit assumed
[6] = tested on: STAPHYLOCOCCUS AUREUS A5177; experiment: as above; details: S. aureus A5177, unit assumed
[7] = tested on: ESCHERICHIA COLI KNK 437; details: E. coli KNK 437; BHI agar; unit assumed
[8] = tested on: CANDIDA ALBICANS CCH 442; experiment: In vitro antibacterial activity, MIC, BHI agar dilution; details: C. albicans CCH 442, unit assumed
[9] = tested on: ENTEROBACTER AEROGENES ATCC 13048; experiment: as above; details: E. aerogenes ATCC 13048, unit assumed
[10] = tested on: PROVIDENCIA STUARTII CMX 640; details: P. stuartii CMX 640; BHI agar; unit assumed
[11] = tested on: ESCHERICHIA COLI H560; experiment: In vitro antibacterial activity, MIC, BHI agar dilution; details: E. coli H560, unit assumed
[12] = tested on: ESCHERICHIA COLI SS; experiment: as above; details: E. coli SS, unit assumed
[13] = tested on: STAPHYLOCOCCUS AUREUS NCTC10649M; experiment: as above; details: S. aureus NCTC10649M, unit assumed
[14] = tested on: PSEUDOMONAS CEPACIA 296I; experiment: as above; details: P. cepacia 296I, unit assumed
[15] = tested on: KLEBSIELLA PNEUMONIAE ATCC 8045; experiment: as above; details: K. pneumoniae ATCC 8045, unit assumed
[16] = tested on: STREPTOCOCCUS PYOGENES 930; experiment: as above; details: S. pyogenes 930, unit assumed
[17] = tested on: STAPHYLOCOCCUS AUREUS CMX 553; experiment: as above; details: S. aureus CMX 553, unit assumed
[18] = tested on: M[…] ATCC 9341; experiment: as above; details: M. luteus ATCC 9341, unit assumed
Method in brief: (§1)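 Twelve successive aqueous dilutions of compound in Brain Heart Infusion agar were inoculated with 1:100 culture dilutions (1:10 for slow growers such as Micrococcus, Streptococcus) by Steers replicator and incubated at 35-37° C for 20 to 24 hours. MIC was the lowest concentration giving no growth, slight haze or sparse colonies versus drug-free control.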

[19] = tested on: EN[…] ATCC 8043; experiment: as above; details: E. faecium ATCC 8043, unit assumed
Method in brief: as §1

[20] = tested on: STR[…] 508; experiment: as above; details: S. agalactiae CMX 508, unit assumed
Method in brief: as §1

[21] = tested on: M[…] ATCC 4698; experiment: as above; details: M. luteus ATCC 4698, unit assumed
Method in brief: as §1

[22] = tested on: STAPHYLOCOCCUS EPIDERMIDIS 3519; details: S. epidermidis 3519; BHI agar; unit assumed
[23] = tested on: STAPHYLOCOCCUS AUREUS ATCC 6538P; experiment: In vitro antibacterial activity, MIC, BHI agar dilution; details: S. aureus ATCC 6538P, 35-37° C., 20 to 24 hours, unit assumed
[24] = tested on: PSEUDOMONAS AERUGINOSA BMH10; experiment: as above; details: P. aeruginosa BMH10, unit assumed
[25] = tested on: STAPHYLOCOCCUS AUREUS A-5278; experiment: as above; details: S. aureus A-5278, unit assumed
[26] = tested on: ESCHERICHIA COLI JUHL; details: E. coli JUHL; BHI agar; unit assumed
[27] = tested on: PSEUDOMONAS AERUGINOSA DPHD-5263; experiment: In vitro antibacterial activity, MIC, BHI agar dilution; details: P. aeruginosa DPHD-5263, unit assumed
[28] = tested on: PSEUDOMONAS AERUGINOSA K799/61; experiment: as above; details: P. aeruginosa K799/61, unit assumed
[29] = tested on: ACINETOBACTER CALCOACETICUS CMX 669; experiment: as above; details: A. calcoaceticus CMX 669, unit assumed
[30] = tested on: PSEUDOMONAS AERUGINOSA 5007; experiment: as above; details: P. aeruginosa 5007, unit assumed
[31] = tested on: STAPHYLOCOCCUS AUREUS 1775; experiment: as above; details: S. aureus 1775, unit assumed
[32] = tested on: STREPTOCOCCUS PYOGENES EES61; experiment: as above; details: S. pyogenes EES61, unit assumed
[33] = tested on: STAPHYLOCOCCUS AUREUS CMX 642A; experiment: as above; details: S. aureus CMX 642A, unit assumed
[34] = tested on: STREPTOCOCCUS PYOGENES PIU 2548; experiment: as above; details: S. pyogenes PIU 2548, unit assumed

| SMILES | MIC [1] [µg/mL] | MIC [2] [µg/mL] | MIC [3] [µg/mL] | MIC [4] [µg/mL] | MIC [5] [µg/mL] | MIC [6] [µg/mL] | MIC [7] [µg/mL] | MIC [8] [µg/mL] | MIC [9] [µg/mL] | MIC [10] [µg/mL] | MIC [11] [µg/mL] | MIC [12] [µg/mL] | MIC [13] [µg/mL] | MIC [14] [µg/mL] | MIC [16] [µg/mL] | MIC [17] [µg/mL] | MIC [18] [µg/mL] | MIC [19] [µg/mL] | MIC [20] [µg/mL] | MIC [21] [µg/mL] | also measured |
| --- | --- | --- | --- | --- | --- | --- | --- | --- | --- | --- | --- | --- | --- | --- | --- | --- | --- | --- | --- | --- | --- |
| CCC1OC(=O)C(C)C(=O)C(C)C(OC2OC(C)CC(N(C)C)C2O)C(C)(OC)CC(C)C2=NC(CN)CN3C(=O)OC1(C)C3C2C (stereo not drawn) [Example 16] | 1.56 (≈ 2.34 µM) | > 100 | 100 (≈ 150 µM) | 0.02 (≈ 0.03 µM) | 12.5 (≈ 18.7 µM) | 0.39 (≈ 0.585 µM) | 12.5 (≈ 18.7 µM) | > 100 | 12.5 (≈ 18.7 µM) | > 100 | 6.2 (≈ 9.3 µM) | 0.1 (≈ 0.15 µM) | 0.2 (≈ 0.3 µM) | > 100 | > 100 | 0.39 (≈ 0.585 µM) | 0.02 (≈ 0.03 µM) | 0.2 (≈ 0.3 µM) | 0.05 (≈ 0.075 µM) | 0.2 (≈ 0.3 µM) | MIC [15]: 12.5 µg/mL (≈ 18.7 µM); MIC [22]: 0.2 µg/mL (≈ 0.3 µM); MIC [23]: 0.2 µg/mL (≈ 0.3 µM); MIC [24]: 50 µg/mL (≈ 75 µM); MIC [25]: > 100 µg/mL; MIC [26]: 12.5 µg/mL (≈ 18.7 µM); MIC [27]: > 100 µg/mL; MIC [28]: 0.39 µg/mL (≈ 0.585 µM); MIC [29]: 12.5 µg/mL (≈ 18.7 µM); MIC [30]: > 100 µg/mL; MIC [31]: > 100 µg/mL; MIC [32]: 0.01 µg/mL (≈ 0.015 µM); MIC [33]: 0.2 µg/mL (≈ 0.3 µM) |
| CC[C@H]1OC(=O)[C@H](C)C(=O)[C@H](C)[C@@H](O[C@@H]2O[C@H](C)C[C@H](N(C)C)[C@H]2O)[C@](C)(OC)C[C@@H](C)C2=NC[C@H](COCc3ccc(F)cc3)N3C(=O)O[C@@]1(C)[C@H]3[C@H]2C [Example 71] | 0.2 (≈ 0.258 µM) | 100 (≈ 129 µM) | 100 (≈ 129 µM) | 0.02 (≈ 0.0258 µM) | 12.5 (≈ 16.1 µM) | 0.1 (≈ 0.129 µM) | 25 (≈ 32.2 µM) | > 100 | 50 (≈ 64.4 µM) | 100 (≈ 129 µM) | 12.5 (≈ 16.1 µM) | 0.39 (≈ 0.503 µM) | 0.1 (≈ 0.129 µM) | 25 (≈ 32.2 µM) | 25 (≈ 32.2 µM) | 0.1 (≈ 0.129 µM) | 0.01 (≈ 0.0129 µM) | 0.05 (≈ 0.0644 µM) | 0.01 (≈ 0.0129 µM) | 0.1 (≈ 0.129 µM) | MIC [22]: 0.1 µg/mL (≈ 0.129 µM); MIC [23]: 0.1 µg/mL (≈ 0.129 µM); MIC [24]: 50 µg/mL (≈ 64.4 µM); MIC [25]: > 100 µg/mL; MIC [26]: 25 µg/mL (≈ 32.2 µM); MIC [27]: > 100 µg/mL; MIC [28]: 0.78 µg/mL (≈ 1.01 µM); MIC [29]: 12.5 µg/mL (≈ 16.1 µM); MIC [30]: 100 µg/mL (≈ 129 µM); MIC [31]: > 100 µg/mL; MIC [32]: 0.01 µg/mL (≈ 0.0129 µM); MIC [33]: 0.1 µg/mL (≈ 0.129 µM); MIC [34]: 0.39 µg/mL (≈ 0.503 µM) |
| CC[C@H]1OC(=O)[C@H](C)C(=O)[C@H](C)[C@@H](O[C@@H]2O[C@H](C)C[C@H](N(C)C)[C@H]2O)[C@](C)(OC)C[C@@H](C)C2=N[C@H](COCc3ccccn3)CN3C(=O)O[C@@]1(C)[C@H]3[C@H]2C [Example 81] | 3.1 (≈ 4.08 µM) | > 100 | > 100 | 0.05 (≈ 0.0659 µM) | > 100 | 0.39 (≈ 0.514 µM) | > 100 | > 100 | > 100 | > 100 | 50 (≈ 65.9 µM) | 1.56 (≈ 2.06 µM) | 0.39 (≈ 0.514 µM) | > 100 | > 100 | 0.39 (≈ 0.514 µM) | 0.05 (≈ 0.0659 µM) | 0.05 (≈ 0.0659 µM) | 0.05 (≈ 0.0659 µM) | 0.39 (≈ 0.514 µM) | MIC [22]: 0.39 µg/mL (≈ 0.514 µM); MIC [23]: 0.39 µg/mL (≈ 0.514 µM); MIC [24]: > 100 µg/mL; MIC [25]: > 100 µg/mL; MIC [26]: > 100 µg/mL; MIC [27]: > 100 µg/mL; MIC [28]: 3.1 µg/mL (≈ 4.08 µM); MIC [29]: 100 µg/mL (≈ 132 µM); MIC [30]: > 100 µg/mL; MIC [31]: > 100 µg/mL; MIC [32]: 0.05 µg/mL (≈ 0.0659 µM); MIC [33]: 0.39 µg/mL (≈ 0.514 µM); MIC [34]: 0.39 µg/mL (≈ 0.514 µM) |

From US6274715A, “Tricyclic erythromycin derivatives” (priority 1997, dated 2001)
